{
  "source": "patent US7829575B2",
  "about": "“Methods for treating androgen receptor related disorders” (University of Cincinnati, priority 2006, dated 2010)",
  "key": {"[1]": {"tested_on": "LNCaP cells", "test": "AR protein stability and hsp70/hsp90 expression, western blotting", "assay_type": "cell-based", "experimental": "Cell lysates are prepared and analyzed by western blotting. […] To further determine how DL3 downregulates AR, LNCaP cells are incubated for 24 hr with DL3 in the absence or presence of proteasome inhibitor MG132.\nHsp70 and hsp90 are key molecular chaperones in cells. Along with several co-chaperones, hsp70 and hsp90 play critical roles in folding and assembling AR to a high-affinity ligand binding conformation and in regulating AR activation that occurs following hormone binding. Therefore, the possibility of whether the downregulation of AR protein by DL3 is mediated by its effects on hsp70 or hsp90 expression is investigated.\nThus, the effects of DL3 on hsp70 expression are further investigated in several other prostate cancer cell lines, including LAPC-4 (wildtype AR), 22Rv1 (mutant AR), and AR-negative cell lines PC-3, DU-145, PWE1-NB14 (ATCC), and PWE1-NB26 (ATCC). […] In FIG. 10, LAPC-4 (in SMEM) and all other (in CMEM) cells are treated for 24 hr and analyzed by western blotting. LNCaP cells are transfected for 24 hr with hsp70 or its control vector, then treated for 24 hr."}, "[2]": {"tested_on": "LNCaP cells", "test": "Cell cycle distribution and apoptosis, flow cytometry (propidium staining) and western blotting", "assay_type": "cell-based", "experimental": "To further appreciate the effects of DL3 on cell growth, cell cycle distribution is determined using the flow cytometry analysis. After incubation of LNCaP cells for 24 hr in SMEM, the majority of cells are in the G1 phase of cell cycle. […] The cell cycle distribution is examined by the propidium staining method. […] Thus, DL3 induces GI arrest of prostate cancer cells in short term culture."}, "[3]": {"target": "T1, AR N/C interaction (Homo sapiens, UniProt P10275)", "T1 construct": "the AR LBD and GAL4 DBD fusion protein (GAL4-LBD); expressed in transfected cells; host or cells: HeLa", "T1 sequence (P10275 669-900 limits assumed)": "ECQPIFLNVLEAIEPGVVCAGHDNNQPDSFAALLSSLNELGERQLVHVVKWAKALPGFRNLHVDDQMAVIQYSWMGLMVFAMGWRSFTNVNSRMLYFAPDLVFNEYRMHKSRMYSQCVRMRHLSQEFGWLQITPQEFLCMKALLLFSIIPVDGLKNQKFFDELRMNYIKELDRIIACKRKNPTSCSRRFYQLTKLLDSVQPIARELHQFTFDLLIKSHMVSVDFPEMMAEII", "test": "AR N/C interaction, mammalian two-hybrid luciferase in HeLa cells", "assay_type": "cell-based", "conditions": "24 hr", "quoted_text": "This is done in a mammalian two-hybrid system, in which HeLa cells are cotransfected with vectors encoding the luciferase reporter driven by a tandem GAL4-responsive elements (GAL4-luc), the AR LBD and GAL4 DBD fusion protein (GAL4-LBD), and AR NTD and VP16 transactivation domain fusion protein (VP16-NTD)."}, "[4]": {"tested_on": "LNCaP cells", "test": "PSA and AR mRNA expression, RT-PCR", "assay_type": "cell-based", "conditions": "24 hr", "experimental": "In FIG. 7 LNCaP or 22Rv1 cells (A) are treated for 24 hr with DL3 and total RNA is extracted and analyzed by real-time RT-PCR. […] PSA mRNA in LNCaP cells is approximately 20 fold higher than that in 22Rv1 cells (FIG. 7A)."}, "[5]": {"tested_on": "LNCaP cells", "test": "Expression of AR-regulated genes, quantitative RT-PCR (Table 1)", "assay_type": "cell-based", "conditions": "data not shown"}, "[6]": {"tested_on": "AR", "test": "AR nuclear localization, immunostaining", "assay_type": "cell-based", "conditions": "PC-3AR and LNCaP cells, SMEM, 20 μM, with or without 1 nM DHT, 2 h", "excerpt": "AR nuclear translocation is a necessary step for AR action. […] AR in the cells were stained with an antibody to AR and detected with Texas Red-labeled secondary antibody. […] AR is translocated to the nuclei upon treatment with DHT. […] Thus, DL3 binds to AR."}, "[7]": {"target": "T2, wildtype AR (Homo sapiens, UniProt P10275)", "T2 sequence (P10275 1-920)": "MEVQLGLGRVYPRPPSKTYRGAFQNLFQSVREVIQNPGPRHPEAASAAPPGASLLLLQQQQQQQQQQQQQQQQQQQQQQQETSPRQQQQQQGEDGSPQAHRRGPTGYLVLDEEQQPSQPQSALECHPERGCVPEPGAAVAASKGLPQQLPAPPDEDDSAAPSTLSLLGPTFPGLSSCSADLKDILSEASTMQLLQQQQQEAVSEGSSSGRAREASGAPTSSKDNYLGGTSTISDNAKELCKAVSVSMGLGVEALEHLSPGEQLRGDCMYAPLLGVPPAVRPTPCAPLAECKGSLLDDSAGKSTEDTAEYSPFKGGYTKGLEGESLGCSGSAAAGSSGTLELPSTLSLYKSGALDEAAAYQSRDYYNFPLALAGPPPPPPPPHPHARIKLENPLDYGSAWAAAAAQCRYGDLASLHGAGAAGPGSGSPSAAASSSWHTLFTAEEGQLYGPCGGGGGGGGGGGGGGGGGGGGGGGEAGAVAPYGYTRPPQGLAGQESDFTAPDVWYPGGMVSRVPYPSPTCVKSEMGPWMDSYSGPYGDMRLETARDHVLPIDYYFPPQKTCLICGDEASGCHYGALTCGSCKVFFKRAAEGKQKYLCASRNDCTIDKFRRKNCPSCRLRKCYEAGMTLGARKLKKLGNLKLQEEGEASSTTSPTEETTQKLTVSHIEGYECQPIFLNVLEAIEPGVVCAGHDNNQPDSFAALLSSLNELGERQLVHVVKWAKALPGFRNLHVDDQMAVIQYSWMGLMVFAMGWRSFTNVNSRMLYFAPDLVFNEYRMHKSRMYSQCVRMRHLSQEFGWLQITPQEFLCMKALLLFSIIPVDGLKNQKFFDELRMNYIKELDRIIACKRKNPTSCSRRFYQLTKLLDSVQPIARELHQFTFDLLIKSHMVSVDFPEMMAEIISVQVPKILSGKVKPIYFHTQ", "test": "PSA promoter luciferase reporter in PC-3 cells co-transfected with AR", "conditions": "PC-3 cells transfected with wildtype AR, 20 μM, 1 nM DHT, 24 hr"}, "[8]": {"tested_on": "LNCaP-Flut-R cells", "test": "Growth of Flut-refractory LNCaP cells, MTT", "assay_type": "cell-based", "conditions": "10 μM, 4 days, MTT (FIG. 2F)", "excerpt": "Viable cells are stained with MTT (3-(4,5-dimethylthiazol-2-yl)-2,5-diphenyltetrazolium bromide). *, **, and *** designate p<0.05, <0.01, and 0.001, respectively, compared with controls."}, "[9]": {"conditions": "20 μM DL3, time course to 48 hr (FIG. 9A)"}},
  "data": [
    {"smiles": "CC(C)(C)c1ccc(OCCSc2nc(=O)cc(N)[nH]2)cc1", "note": "[DL3, 6-amino-2-(2-4-tert-butyl-phenoxy)-ethylsulfanyl-1H-pyrimidin-4-one]", "values": [
      {"measurement": "time after exposure at which AR downregulation can be observed", "setting": "[1]; 20 μM", "value": 8, "unit": "h"},
      {"measurement": "time after treatment at which reduction of hsp70 starts", "setting": "[1]; 20 μM DL3", "value": 4, "unit": "h"},
      {"measurement": "expression of hsp70", "setting": "[1]; [9]", "value": "reduced"},
      {"measurement": "expression of hsp90", "setting": "[1]; [9]", "value": "not"},
      {"measurement": "partial reversal by DHT of the CHX-diminished AR expression", "setting": "[1]; 24 hr with DHT, DL3 and CHX (FIG. 9B, lane 7 vs. lane 6)", "value": "also blocked"},
      {"measurement": "AR downregulation by DL3 under overexpression of hsp70", "setting": "[1]; LNCaP cells transfected 24 hr with hsp70, then treated 24 hr", "value": "not able to protect AR downregulation"},
      {"measurement": "elevation of AR and PSA expression by DHT", "setting": "[1]; SMEM, 24 hr (FIG. 9B, lane 4 vs. lane 3)", "value": "blocked"},
      {"measurement": "AR protein levels", "setting": "[1]; dose-dependent", "value": "downregulates AR protein levels"},
      {"measurement": "increase of the portion of cells in G1 phase of cell cycle", "setting": "[2]; 24 hr, regardless of presence or absence of DHT", "value": 15, "unit": "%"},
      {"measurement": "induction of apoptosis", "setting": "[2]; 24 hr, DL3 at 20 μM", "value": "does not induce apoptosis"},
      {"measurement": "survivin expression and caspase 3 cleavage (western blotting)", "setting": "[2]; data not shown", "value": "alter neither survivin expression nor caspase 3 cleavage"},
      {"measurement": "DHT-induced N/C interaction", "setting": "[3]; 1 nM DHT, different concentrations", "value": "not significantly altered"},
      {"measurement": "luciferase activity (N/C interaction), compound alone", "setting": "[3]; no DHT", "value": "not significantly altered"},
      {"measurement": "DHT-stimulated PSA mRNA expression", "setting": "[4]; 20 μM, 1 nM DHT", "value": "abolishes"},
      {"measurement": "basal level of PSA mRNA", "setting": "[4]; 20 μM, androgen-starved", "value": "significantly reduces"},
      {"measurement": "expression of AR mRNA", "setting": "[4]; 1 nM DHT, 20 μM DL3 or Bical", "value": "partially downregulated"},
      {"measurement": "expression of PSA mRNA", "setting": "[4]; CMEM, dose response (FIG. 7A)", "value": "inhibits the expression of PSA mRNA"},
      {"measurement": "PSMA expression at the protein level", "setting": "[5]", "value": "Enhancement of PSMA expression"},
      {"measurement": "nuclear localization of AR", "setting": "[6]", "value": "partially induce and enhance DHT-induced nuclear localization of AR"},
      {"measurement": "DHT-induced activation of PSA promoter activity", "setting": "[7]", "value": "significantly inhibits"},
      {"measurement": "growth of LNCaP-Flut-R cells", "setting": "[8]", "value": "significantly inhibits growth"}
    ]}
  ]
}
